Source: patent US8431568B2, “Aromatic heterocyclic fused indolobenzadiazepine HCV NS5B inhibitors” (Bristol-Myers Squibb Company, priority 2008, dated 2013)

Columns and labels:
[1] = system: HCV replicon cells; experiment: HCV replicon FRET assay; assay type: cell-based; conditions: Hepatitis C virus
Source text: To perform the HCV FRET screening assay, 96-well cell culture plates were used. The FRET peptide (Anaspec, Inc.) (Taliani et al., Anal. Biochem. 1996, 240, 60-67) contains a fluorescence donor, EDANS, near one end of the peptide and an acceptor, DABCYL, near the other end. The fluorescence of the peptide is quenched by […] resonance energy transfer (RET) between the donor and the acceptor, but as the NS3 protease cleaves the peptide the products are released from RET quenching and the fluorescence of the donor becomes apparent. The assay reagent was made as follows: 5× cell Luciferase cell culture lysis reagent from Promega (#E153A) diluted to 1× with dH2O, NaCl added to 150 mM final, the FRET peptide diluted to 20 uM final from a 2 mM stock.
To prepare plates, HCV replicon cells, with or without a Renilla luciferase reporter gene, were trypsinized and placed into each well of a 96-well plate with titrated test compounds added in columns 3 through 12; columns 1 and 2 contained a control compound (HCV protease inhibitor), and the bottom row contained cells without compound. The plates were then placed in a CO2 incubator at 37° C.
Subsequent to addition of the test compounds described above (FRET Assay Preparation), at various times the plate was removed and Alamar blue solution (Trek Diagnostics, #00-100) was added per well as a measure of cellular toxicity. After reading in a Cytoflour 4000 instrument (PE Biosystems), plates were rinsed with PBS and then used for FRET assay by the addition of 30 ul of the FRET peptide assay reagent described above (FRET Assay Preparation) per well. The plate was then placed into the Cytoflour 4000 instrument which had been set to 340 excite/490 emission, automatic mode for 20 cycles and the plate read in a kinetic mode. Typically, the signal to noise using an endpoint analysis after the reads was at least three-fold. Alternatively, after Alamar blue reading, plates were rinsed with PBS, 50 ul of DMEM (high glucose) without phenol red was added and plates were then used for luciferase assay using the Promega Dual-Glo Luciferase Assay System.
Compound analysis was determined by quantification of the relative HCV replicon inhibition and the relative cytotoxicity values. To calculate cytoxicity values, the average Alamar Blue fluorescence signals from the control wells were set as 100% non-toxic. The individual signals in each of the compound test wells were then divided by the average control signal and multiplied by 100% to determine […]. To calculate the HCV replicon inhibition values, an average background value was obtained from the two wells containing the highest amount of HCV protease inhibitor at the end of the assay period. These numbers were similar to those obtained from naïve Huh-7 cells.
The background numbers were then subtracted from the average signal obtained from the control wells and this number was used as 100% activity. The individual signals in each of the compound test wells were then divided by the averaged control values after background subtraction and multiplied by 100% to determine percent activity. EC50 values for a protease inhibitor titration were calculated as the concentration which caused a 50% reduction in FRET or luciferase activity. The two numbers generated for the compound plate, percent cytoxicity and percent activity were used to determine compounds of interest for further analysis.

[2] = biological target: T1, HCV NS5B RdRp genotype 1b (Hepatitis C virus genotype 1b, UniProt Q9WMX2); experiment: Modified HCV NS5B RdRp enzyme assay (preincubation protocol); assay type: biochemical
T1 construct: The protein was expressed with an 18 amino acid C-terminal truncation to enhance the solubility; made in house; host or cells: E. coli BL21(DE3), pET21a vector
T1 sequence (Q9WMX2 2420-2992): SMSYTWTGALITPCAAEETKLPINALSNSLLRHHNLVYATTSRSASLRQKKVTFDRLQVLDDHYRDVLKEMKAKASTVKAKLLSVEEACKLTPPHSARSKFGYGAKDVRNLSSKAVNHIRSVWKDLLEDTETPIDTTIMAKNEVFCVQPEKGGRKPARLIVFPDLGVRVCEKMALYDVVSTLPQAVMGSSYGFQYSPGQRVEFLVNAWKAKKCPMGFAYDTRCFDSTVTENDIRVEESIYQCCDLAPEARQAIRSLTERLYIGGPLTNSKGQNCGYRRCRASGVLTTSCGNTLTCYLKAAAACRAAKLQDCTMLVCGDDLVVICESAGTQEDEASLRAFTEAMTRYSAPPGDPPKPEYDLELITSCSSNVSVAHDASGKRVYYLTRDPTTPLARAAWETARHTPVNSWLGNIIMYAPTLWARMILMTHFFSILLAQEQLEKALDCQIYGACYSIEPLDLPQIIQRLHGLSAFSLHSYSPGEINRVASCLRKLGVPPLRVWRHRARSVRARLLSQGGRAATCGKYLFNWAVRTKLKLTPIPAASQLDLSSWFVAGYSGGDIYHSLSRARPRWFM
Method: HCV NS5B RdRp Cloning, Expression, and Purification.
The cDNA encoding the NS5B protein of HCV, genotype 1b, was cloned into the pET21a expression vector. The protein was expressed with an 18 amino acid C-terminal truncation to enhance the solubility. The E. coli competent cell line BL21(DE3) was used for expression of the protein. Cultures were grown at 37° C. for ˜4 hours until the cultures reached an optical density of 2.0 at 600 nm. The cultures were cooled to 20° C. and induced with 1 mM IPTG. Fresh ampicillin was added to a final concentration of 50 μg/ml and the cells were grown overnight at 20° C.
Cell pellets (3 L) were lysed for purification to yield 15-24 mgs of purified NS5B. The lysis buffer consisted of 20 mM Tris-HCl, pH 7.4, 500 mM NaCl, 0.5% triton X-100, 1 mM DTT, 1 mM EDTA, 20% glycerol, 0.5 mg/ml lysozyme, 10 mM MgCl2, 15 ug/ml deoxyribonuclease I, and Complete TM protease inhibitor tablets (Roche). After addition of the lysis buffer, frozen cell pellets were resuspended using a tissue homogenizer. To reduce the viscosity of the sample, aliquots of the lysate were sonicated on ice using a microtip attached to a Branson sonicator. The sonicated lysate was centrifuged at 100,000×g for 1 hr at 4° C. and filtered through a 0.2 μm filter unit (Corning).
The protein was purified using three sequential chromatography steps: Heparin sepharose CL-6B, polyU sepharose 4B, and Hitrap SP sepharose (Pharmacia). The chromatography buffers were identical to the lysis buffer but contained no lysozyme, deoxyribonuclease I, MgCl2 or protease inhibitor and the NaCl concentration of the buffer was adjusted according to the requirements for charging the protein onto the column. Each column was eluted with a NaCl gradient which varied in length from 5-50 column volumes depending on the column type. After the final chromatography step, the resulting purity of the enzyme is >90% based on SDS-PAGE analysis. The enzyme was aliquoted and stored at −80° C.
Standard HCV NS5B RdRp Enzyme Assay.
HCV RdRp genotype 1b assays were run in a final volume of 60 μl in 96 well plates (Costar 3912). The assay buffer is composed of 20 mM Hepes, pH 7.5, 2.5 mM KCl, 2.5 mM MgCl2, 1 mM DTT, 1.6 U RNAse inhibitor (Promega N2515), 0.1 mg/ml BSA (Promega R3961), and 2% glycerol. All compounds were serially diluted (3-fold) in DMSO and diluted further in water such that the final concentration of DMSO in the assay was 2%. HCV RdRp genotype 1b enzyme was used at a final concentration of 28 nM. A polyA template was used at 6 nM, and a biotinylated oligo-dT12 primer was used at 180 nM final concentration. Template was obtained commercially (Amersham 27-4110). Biotinylated primer was prepared by Sigma Genosys. 3H-UTP was used at 0.6 μCi (0.29 μM total UTP). Reactions were initiated by the addition of enzyme, incubated at 30° C. for 60 min, and stopped by adding 25 μl of 50 mM EDTA containing SPA beads (4 μg/μl, Amersham RPNQ 0007). Plates were read on a Packard Top Count NXT after >1 hr incubation at room temperature.
Modified HCV NS5B RdRp Enzyme Assay.
A modified enzyme assay was performed essentially as described for the standard enzyme assay except for the following: The biotinylated oligo dT12 primer was precaptured on streptavidin-coated SPA beads by mixing primer and beads in assay buffer and incubating at room temperature for one hour. Unbound primer was removed after centrifugation. The primer-bound beads were resuspended in 20 mM Hepes buffer, pH 7.5 and used in the assay at final concentrations of 20 nM primer and 0.67 μg/μl beads. Order of addition in the assay: enzyme (14 nM) was added to diluted compound followed by the addition of a mixture of template (0.2 nM), 3H-UTP (0.6 μCi, 0.29 μM), and primer-bound beads, to initiate the reaction; concentrations given are final. Reactions were allowed to proceed for 4 hours at 30° C.
IC50 values for compounds were determined using seven different [I]. […]

SMILES | EC50 [1] | IC50 [2]
Cc1cn2c(n1)Cn1c(c(C3CCCCC3)c3ccc(C(=O)NS(=O)(=O)N(C)C)cc31)-c1ccccc1-2 [Example 8, 10-Cyclohexyl-N-((dimethylamino)sulfonyl)-2-methyl-4H-imidazo[1,2-a]indolo[1,2-d][1,4]benzodiazepine-7-carboxamide] | 710 nM | 33 nM
O=C(O)c1ccc2c(C3CCCCC3)c3n(c2c1)Cc1nncn1-c1ccccc1-3 [Example 1, 10-Cyclohexyl-4H-indolo[1,2-d][1,2,4]triazolo[4,3-a][1,4]benzodiazepine-7-carboxylic acid] | 910 nM | 140 nM
Cc1nnc2n1-c1ccccc1-c1c(C3CCCCC3)c3ccc(C(=O)NS(=O)(=O)N(C)C)cc3n1C2 [Example 4, 10-Cyclohexyl-N-((dimethylamino)sulfonyl)-1-methyl-4H-indolo[1,2-d][1,2,4]triazolo[4,3-a][1,4]benzodiazepine-7-carboxamide] | 320 nM | 54 nM
CN(C)S(=O)(=O)NC(=O)c1ccc2c(C3CCCCC3)c3n(c2c1)Cc1nccn1-c1ccccc1-3 [Example 6, 10-Cyclohexyl-N-((dimethylamino)sulfonyl)-4H-imidazo[1,2-a]indolo[1,2-d][1,4]benzodiazepine-7-carboxamide] | 390 nM | 19 nM
Cc1cn2c(n1)Cn1c(c(C3CCCCC3)c3ccc(C(=O)O)cc31)-c1ccccc1-2 [Example 7, 10-Cyclohexyl-2-methyl-4H-imidazo[1,2-a]indolo[1,2-d][1,4]benzodiazepine-7-carboxylic acid] | 2850 nM | 130 nM
Cc1nnc2n1-c1ccccc1-c1c(C3CCCCC3)c3ccc(C(=O)O)cc3n1C2 [Example 3, 10-Cyclohexyl-1-methyl-4H-indolo[1,2-d][1,2,4]triazolo[4,3-a][1,4]benzodiazepine-7-carboxylic acid] | 770 nM | 170 nM
CN(C)S(=O)(=O)NC(=O)c1ccc2c(C3CCCCC3)c3n(c2c1)Cc1nncn1-c1ccccc1-3 [Example 2, 10-Cyclohexyl-N-((dimethylamino)sulfonyl)-4H-indolo[1,2-d][1,2,4]triazolo[4,3-a][1,4]benzodiazepine-7-carboxamide] | 160 nM | 20 nM
O=C(O)c1ccc2c(C3CCCCC3)c3n(c2c1)Cc1nccn1-c1ccccc1-3 [Example 5, 10-Cyclohexyl-4H-imidazo[1,2-a]indolo[1,2-d][1,4]benzodiazepine-7-carboxylic acid] | 740 nM | 26 nM
